Consider eight molecules from patent US4920119A, “Triazine derivatives” (Hoffmann-La Roche Inc., priority 1986, dated 1990).

In this assay the target is T1, Xanthine oxidase (Rattus norvegicus, UniProt P22985).
T1 construct: Xanthine oxidase was obtained from rat liver; from tissue; host or cells: rat liver
The experiment in a line: xanthine oxidase inhibiting activity (xanthine oxidase-catalyzed oxidation of xanthine to uric acid). It is filed as biochemical. Particulars: xanthine oxidase from rat liver; 10^-5 molar xanthine, 0.1M tris hydrochloride pH 8.1, 30° C., uric acid formation at 293 nm. The procedure: Xanthine oxidase was obtained from rat liver according to the method described by E. Della Corte and F. Stirpe in Biochem.J. 117, 97 (1970) and was aged for at least 24 hours prior to use. Solutions of 3 ml of 0.1M aqueous tris hydrochloride buffer (pH 8.1) containing 10^-5 molar xanthine were treated with 200 μl of xanthine oxidase dissolved in 0.1M aqueous tris hydrochloride buffer (pH 8.1) and incubated at 30° C. in the presence and absence of a test substance, whereupon the formation of uric acid from xanthine was monitored by measuring the light absorption at 293 nm. The IC50 , namely that concentration of a test substance required to inhibit by 50% the xanthine oxidase-catalyzed oxidation of xanthine to uric acid, was then determined.

The structures appear in SMILES notation.

T1 sequence (P22985 whole entry): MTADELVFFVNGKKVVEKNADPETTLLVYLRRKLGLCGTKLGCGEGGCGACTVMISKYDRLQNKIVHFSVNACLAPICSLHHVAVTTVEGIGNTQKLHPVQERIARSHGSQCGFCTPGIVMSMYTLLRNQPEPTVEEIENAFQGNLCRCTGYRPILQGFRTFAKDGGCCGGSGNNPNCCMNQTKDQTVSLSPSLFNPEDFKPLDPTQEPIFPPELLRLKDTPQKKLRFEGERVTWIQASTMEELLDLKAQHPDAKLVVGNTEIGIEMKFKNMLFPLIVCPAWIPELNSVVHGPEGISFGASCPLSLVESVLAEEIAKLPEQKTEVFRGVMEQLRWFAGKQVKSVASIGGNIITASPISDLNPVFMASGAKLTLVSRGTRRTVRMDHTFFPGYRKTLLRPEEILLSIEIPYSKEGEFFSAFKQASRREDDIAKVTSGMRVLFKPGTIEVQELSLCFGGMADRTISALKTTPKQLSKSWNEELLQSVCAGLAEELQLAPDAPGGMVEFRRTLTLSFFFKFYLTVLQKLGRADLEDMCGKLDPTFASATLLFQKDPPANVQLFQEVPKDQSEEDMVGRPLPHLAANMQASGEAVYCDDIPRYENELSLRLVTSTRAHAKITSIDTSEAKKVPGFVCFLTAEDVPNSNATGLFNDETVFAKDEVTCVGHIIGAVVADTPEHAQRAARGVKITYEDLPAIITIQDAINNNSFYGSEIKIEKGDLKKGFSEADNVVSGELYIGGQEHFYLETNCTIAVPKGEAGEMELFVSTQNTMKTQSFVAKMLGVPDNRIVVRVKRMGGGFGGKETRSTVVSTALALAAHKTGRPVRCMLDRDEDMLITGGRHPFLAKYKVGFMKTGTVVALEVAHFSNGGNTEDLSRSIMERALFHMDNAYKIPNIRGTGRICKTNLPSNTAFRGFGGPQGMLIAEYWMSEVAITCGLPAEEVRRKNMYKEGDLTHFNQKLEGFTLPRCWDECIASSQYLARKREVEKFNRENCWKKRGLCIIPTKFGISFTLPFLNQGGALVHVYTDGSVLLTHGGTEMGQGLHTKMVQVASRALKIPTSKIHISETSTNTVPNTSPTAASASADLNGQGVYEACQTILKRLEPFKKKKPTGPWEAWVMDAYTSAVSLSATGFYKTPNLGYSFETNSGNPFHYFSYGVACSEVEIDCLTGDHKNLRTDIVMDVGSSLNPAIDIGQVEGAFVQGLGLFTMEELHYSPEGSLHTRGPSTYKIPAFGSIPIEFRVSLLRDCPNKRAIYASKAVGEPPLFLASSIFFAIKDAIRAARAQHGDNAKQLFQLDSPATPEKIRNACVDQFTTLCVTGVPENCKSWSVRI

As usually defined, the IC50 is the concentration needed to halve the response being measured. The low end stands for greater potency in that assay, the high end for weaker potency in that assay. As for `COc1ccc(-n2ncc3c(=O)[nH]nnc32)cc1Cl` [7-(3-chloro-4-methoxyphenyl)-7H-pyrazolo[3,4-d]-1,2,3-triazin-4(3H)-one], it took 6 nM to reach half-maximal inhibition (IC50).

The molecule `O=c1[nH]nnc2c1cnn2-c1cccc(C(F)(F)F)c1` [7-(3-Trifluoromethylphenyl)-7H-pyrazolo[3,4-d]-1,2,3-triazin-4(3H)-one] gave an IC50 of 35 nM. To `COc1ccc(-c2nsc3c(=O)[nH]nnc23)cc1C(F)(F)F` [7-(3-trifluoromethyl-4-methoxyphenyl)isothiazolo[4,5-d]-1,2,3-triazin-4(3H)-one] belongs 4 nM; to `CSc1ccc(-n2ncc3c(=O)[nH]nnc32)cc1` [7-(4-methylthiophenyl)-7H-pyrazolo[3,4-d]-1,2,3-triazin-4(3H)-one], 18 nM; to `O=c1[nH]nnc2c(-c3cccc(C(F)(F)F)c3)nccc12` [8-(3-trifluoromethylphenyl)pyrido[3,4-d]-1,2,3-triazin-4(3H)-one], 48 nM. As for `COc1ccc(-c2nsc3c(=O)[nH]nnc23)cc1Cl` [7-(3-chloro-4-methoxyphenyl)isothiazolo[4,5-d]-1,2,3-triazin-4(3H)-one], the figure is 4 nM. To `CC(=O)Nc1ccc(-c2nsc3c(=O)[nH]nnc23)cc1` [7-(4-acetamidophenyl)isothiazolo[4,5-d]-1,2,3-triazin-4(3H)-one] belongs 7 nM; to `COc1ccc(-c2nsc3c(=O)[nH]nnc23)cc1F` [7-(3-fluoro-4-methoxyphenyl)isothiazolo[4,5-d]-1,2,3-triazin-4(3H)-one], 8 nM.
